Conditions: Rate of evaporation

CCn1cc[n+](C)c1.O=S(=O)([N-]S(=O)(=O)C(F)(F)F)C(F)(F)F
Liquid
Conditions	vapor or sublimation pressure [kPa]
363.13 K	1.75e-09
368.13 K	2.95e-09
373.13 K	4.91e-09
378.13 K	8.06e-09
383.13 K	1.31e-08
388.13 K	2.09e-08
393.13 K	3.31e-08
398.13 K	5.18e-08
403.13 K	8.01e-08
408.13 K	1.23e-07
413.13 K	1.86e-07
418.13 K	2.78e-07
423.13 K	4.14e-07
428.13 K	6.09e-07
433.13 K	8.88e-07
438.13 K	1.28e-06
443.13 K	1.84e-06
448.13 K	2.62e-06
453.13 K	3.7e-06
458.13 K	5.18e-06
463.13 K	7.2e-06
468.13 K	9.95e-06
473.13 K	1.36e-05
538.13 K	0.00129
543.13 K	0.00168
548.13 K	0.00216
553.13 K	0.00277
558.13 K	0.00355
563.13 K	0.00451
568.13 K	0.00572
573.13 K	0.00722
578.13 K	0.00907
583.13 K	0.0114
588.13 K	0.0142
593.13 K	0.0176
598.13 K	0.0218
603.13 K	0.0269
608.13 K	0.0331
613.13 K	0.0405
618.13 K	0.0495
623.13 K	0.0602
628.13 K	0.0731
633.13 K	0.0885
638.13 K	0.107
643.13 K	0.128
648.13 K	0.154
653.13 K	0.184
658.13 K	0.22
663.13 K	0.261
668.13 K	0.31
673.13 K	0.367
678.13 K	0.433
683.13 K	0.51
688.13 K	0.599
693.13 K	0.703
698.13 K	0.822
703.13 K	0.959
708.13 K	1.12
713.13 K	1.3
718.13 K	1.5
723.13 K	1.74

CCCCCCCCCCCCCCCC [hexadecane]
Liquid
Conditions	vapor or sublimation pressure [kPa]
284.15 K	6.01e-05
289.15 K	0.000102
294.15 K	0.000168
299.15 K	0.000274
304.15 K	0.00044
309.15 K	0.000696
314.15 K	0.00108
319.15 K	0.00166
324.15 K	0.00252
329.15 K	0.00377
334.15 K	0.00558
339.15 K	0.00816
344.15 K	0.0118
349.15 K	0.0169
354.15 K	0.0239
359.15 K	0.0335
364.15 K	0.0465
369.15 K	0.0641
374.15 K	0.0875
379.15 K	0.119
384.15 K	0.159
389.15 K	0.212
394.15 K	0.281
399.15 K	0.369
404.15 K	0.482
409.15 K	0.626
414.15 K	0.806
419.15 K	1.03
424.15 K	1.32
429.15 K	1.67
434.15 K	2.1
439.15 K	2.63
444.15 K	3.28
449.15 K	4.07
454.15 K	5.02
459.15 K	6.18
464.15 K	7.56
469.15 K	9.21
474.15 K	11.2
479.15 K	13.5
484.15 K	16.3
489.15 K	19.5
494.15 K	23.3
499.15 K	27.7
504.15 K	32.9
509.15 K	38.9

CCCCCCCCCCCC [dodecane]
Liquid
Conditions	vapor or sublimation pressure [kPa]
284.15 K	0.00421
289.15 K	0.00646
294.15 K	0.00978
299.15 K	0.0146
304.15 K	0.0215
309.15 K	0.0312
314.15 K	0.0449
319.15 K	0.0638
324.15 K	0.0897
329.15 K	0.125
334.15 K	0.172
339.15 K	0.234
344.15 K	0.317
349.15 K	0.425
354.15 K	0.565
359.15 K	0.746
364.15 K	0.976
369.15 K	1.27
374.15 K	1.64
379.15 K	2.1
384.15 K	2.67
389.15 K	3.38
394.15 K	4.25
399.15 K	5.32
404.15 K	6.62
409.15 K	8.19
414.15 K	10.1
419.15 K	12.4
424.15 K	15.1
429.15 K	18.3
434.15 K	22.1
439.15 K	26.6
444.15 K	31.8
449.15 K	38
454.15 K	45.1
459.15 K	53.4
464.15 K	63
469.15 K	74.1
474.15 K	86.8
479.15 K	101
484.15 K	118
489.15 K	137
494.15 K	158
499.15 K	183
504.15 K	210
509.15 K	241

CCn1cc[n+](C)c1.COS(=O)(=O)[O-] [1-ethyl-3-methylimidazolium methylsulfate]
Liquid
Conditions	vapor or sublimation pressure [kPa]
408.15 K	6.75e-09
410.15 K	8.27e-09
413.15 K	1.12e-08
416.15 K	1.5e-08
420.15 K	2.21e-08
424.15 K	3.24e-08
428.15 K	4.7e-08
432.15 K	6.79e-08
436.15 K	9.72e-08
440.15 K	1.38e-07
444.15 K	1.96e-07
448.15 K	2.75e-07

c1ccc2cc3ccccc3cc2c1 [anthracene]
Crystal
Conditions	vapor or sublimation pressure [kPa]
284.15 K	1.79e-07
289.15 K	3.52e-07
294.15 K	6.77e-07
299.15 K	1.27e-06
304.15 K	2.35e-06
309.15 K	4.25e-06
314.15 K	7.54e-06
319.15 K	1.31e-05
324.15 K	2.25e-05
329.15 K	3.79e-05
334.15 K	6.29e-05
339.15 K	0.000103
344.15 K	0.000166
349.15 K	0.000263
354.15 K	0.000413
359.15 K	0.00064
364.15 K	0.000979
369.15 K	0.00148
374.15 K	0.00222
379.15 K	0.00328
384.15 K	0.00481
389.15 K	0.00698
394.15 K	0.01
399.15 K	0.0143
404.15 K	0.0202
409.15 K	0.0283
414.15 K	0.0393
419.15 K	0.0541
424.15 K	0.0741
429.15 K	0.101
434.15 K	0.136
439.15 K	0.182
444.15 K	0.242
449.15 K	0.319
454.15 K	0.42
459.15 K	0.548
464.15 K	0.712
469.15 K	0.919
474.15 K	1.18
479.15 K	1.51
484.15 K	1.92
489.15 K	2.42
494.15 K	3.05
499.15 K	3.83
504.15 K	4.77
509.15 K	5.93
